Results reported in US6893829B2, “Human leukocyte 12-lipoxygenase and its role in the pathogenesis of disease states” (City of Hope, priority 1992, dated 2005).

System: leukocyte 12-LO protein in HSMC
Assay: 12-LO protein expression in HSMC (Western immunoblotting)
Assay type: cell-based, human
Method: FIGS. 4A and 4B illustrate the regulation of leukocyte 12-LO protein expression by AII in HSMC. FIG. 4A is an immunoblot showing regulation by AII. FIG. 4B is a bar graph representation of densitometric analysis of immunoblot in FIG. 4A. Cells were grown in medium 199 containing 20% FBS and serum-depleted for 24 hours by placing in medium 199 containing 0.4% FBS and 0.2% BSA. Cells were treated with AII at the concentration of 2×10^−7 mol/L for 24 to 48 hours. Cells were washed with PBS and harvested by scraping. Cell pellets were lysed and cytosol fractions were electrophoresed. […]
SDS polyacrylamide gel electrophoresis (10% running gel, 4% stacking gel) was performed according to the method of Laemmli (24). […] Nonspecific binding was evaluated using normal rabbit serum. Western blots were quantitated using a computerized video densitometer (Applied Imagining, Santa Clara, Calif.; Lynx DNA vision) and values expressed as arbitrary absorbance units.
To examine whether AII induces the 12-LO enzyme expression in HSMC, cells were treated with AII at the concentration of 2×10^−7 mol/L for 24 or 48 hours. […] A distinct band was detected with a molecular weight of nearly 72 kD which is the reported molecular weight of the porcine leukocyte-type of 12-LO (FIG. 4). […]

In the case of “Angiotensin II (DRVYIHPF; Angiotensin-2; UniProt P01019 25-32, looked up) [AII, peptide hormone, added to cells as stimulus]”, the “increase in 12-LO protein expression” value (AII 2×10^−7 mol/L, 24 hour, serum free media) is reported as “seven” and the 12-LO expression induction (AII, 48 hours, data not shown) is reported as 4-7 fold.
